Structures can show the parent of a compound that is named as a salt.
What was measured:
RON (human) = RON (human) (Homo sapiens, UniProt Q04912); experiment: RON kinase AlphaScreen assay (Km of ATP); format: biochemical; details: ATP at Km; at least duplicate experiments
Outline: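 AlphaScreen with PT66 donor/acceptor beads, read after 1 h, detected phosphorylation of biotinylated poly(Glu,Tyr) by human RON. Enzyme-started reactions ran 30 min at room temperature with ATP at Km. Buffer was HEPES pH 7.4 with MgCl2, glycerol, vanadate and 1% DMSO.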

MET (human) = MET (human) (Homo sapiens, UniProt P08581); experiment: MET kinase AlphaScreen assay (Km of ATP); format: biochemical; details: ATP at Km; at least duplicate experiments
Outline: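 AlphaScreen detection with PT66 beads (1 h) follows a 60 min room-temperature MET reaction. Substrate is 200 ng/μL biotinylated poly(Glu,Tyr), with ATP set at an enzyme-optimized concentration. Buffer is HEPES pH 7.4 with MgCl2, MnCl2 and 0.334 mM vanadate, compounds at 1% DMSO.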

Chain of RON (human) (Q04912 25-1400): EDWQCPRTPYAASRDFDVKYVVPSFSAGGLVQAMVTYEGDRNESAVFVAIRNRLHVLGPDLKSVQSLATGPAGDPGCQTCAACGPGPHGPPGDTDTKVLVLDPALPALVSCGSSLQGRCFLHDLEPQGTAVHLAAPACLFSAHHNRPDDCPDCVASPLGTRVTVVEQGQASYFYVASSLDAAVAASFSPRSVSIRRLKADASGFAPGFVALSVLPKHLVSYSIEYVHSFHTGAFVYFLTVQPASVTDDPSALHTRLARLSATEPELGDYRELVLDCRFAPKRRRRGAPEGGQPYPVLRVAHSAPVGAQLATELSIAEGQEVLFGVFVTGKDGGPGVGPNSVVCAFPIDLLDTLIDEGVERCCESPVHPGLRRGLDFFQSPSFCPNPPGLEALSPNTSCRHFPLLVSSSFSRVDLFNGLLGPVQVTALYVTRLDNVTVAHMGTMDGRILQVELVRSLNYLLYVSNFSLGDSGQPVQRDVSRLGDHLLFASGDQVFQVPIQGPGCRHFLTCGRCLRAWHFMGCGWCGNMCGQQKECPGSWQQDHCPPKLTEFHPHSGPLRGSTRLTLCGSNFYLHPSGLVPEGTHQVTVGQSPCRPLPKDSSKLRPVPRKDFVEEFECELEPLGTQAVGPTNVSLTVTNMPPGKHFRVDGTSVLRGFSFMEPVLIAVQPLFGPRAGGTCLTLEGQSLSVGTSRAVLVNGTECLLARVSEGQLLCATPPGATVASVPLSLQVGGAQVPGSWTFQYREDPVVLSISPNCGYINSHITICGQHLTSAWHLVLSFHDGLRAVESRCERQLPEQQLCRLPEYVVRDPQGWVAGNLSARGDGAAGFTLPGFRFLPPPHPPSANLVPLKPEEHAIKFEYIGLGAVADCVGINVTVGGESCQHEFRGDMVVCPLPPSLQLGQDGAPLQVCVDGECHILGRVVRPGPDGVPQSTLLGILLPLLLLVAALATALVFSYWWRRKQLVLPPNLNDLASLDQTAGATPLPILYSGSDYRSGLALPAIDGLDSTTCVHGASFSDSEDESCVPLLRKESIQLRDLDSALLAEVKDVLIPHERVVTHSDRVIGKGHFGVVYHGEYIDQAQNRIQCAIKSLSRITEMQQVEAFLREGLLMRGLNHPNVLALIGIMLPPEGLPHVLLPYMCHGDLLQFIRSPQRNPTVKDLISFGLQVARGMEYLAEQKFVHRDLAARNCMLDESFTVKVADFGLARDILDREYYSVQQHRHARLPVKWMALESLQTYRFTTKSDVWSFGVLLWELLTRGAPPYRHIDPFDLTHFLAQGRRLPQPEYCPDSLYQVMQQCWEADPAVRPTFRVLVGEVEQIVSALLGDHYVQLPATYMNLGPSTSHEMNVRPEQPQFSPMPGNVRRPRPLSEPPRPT
Chain of MET (human) (P08581 25-1390): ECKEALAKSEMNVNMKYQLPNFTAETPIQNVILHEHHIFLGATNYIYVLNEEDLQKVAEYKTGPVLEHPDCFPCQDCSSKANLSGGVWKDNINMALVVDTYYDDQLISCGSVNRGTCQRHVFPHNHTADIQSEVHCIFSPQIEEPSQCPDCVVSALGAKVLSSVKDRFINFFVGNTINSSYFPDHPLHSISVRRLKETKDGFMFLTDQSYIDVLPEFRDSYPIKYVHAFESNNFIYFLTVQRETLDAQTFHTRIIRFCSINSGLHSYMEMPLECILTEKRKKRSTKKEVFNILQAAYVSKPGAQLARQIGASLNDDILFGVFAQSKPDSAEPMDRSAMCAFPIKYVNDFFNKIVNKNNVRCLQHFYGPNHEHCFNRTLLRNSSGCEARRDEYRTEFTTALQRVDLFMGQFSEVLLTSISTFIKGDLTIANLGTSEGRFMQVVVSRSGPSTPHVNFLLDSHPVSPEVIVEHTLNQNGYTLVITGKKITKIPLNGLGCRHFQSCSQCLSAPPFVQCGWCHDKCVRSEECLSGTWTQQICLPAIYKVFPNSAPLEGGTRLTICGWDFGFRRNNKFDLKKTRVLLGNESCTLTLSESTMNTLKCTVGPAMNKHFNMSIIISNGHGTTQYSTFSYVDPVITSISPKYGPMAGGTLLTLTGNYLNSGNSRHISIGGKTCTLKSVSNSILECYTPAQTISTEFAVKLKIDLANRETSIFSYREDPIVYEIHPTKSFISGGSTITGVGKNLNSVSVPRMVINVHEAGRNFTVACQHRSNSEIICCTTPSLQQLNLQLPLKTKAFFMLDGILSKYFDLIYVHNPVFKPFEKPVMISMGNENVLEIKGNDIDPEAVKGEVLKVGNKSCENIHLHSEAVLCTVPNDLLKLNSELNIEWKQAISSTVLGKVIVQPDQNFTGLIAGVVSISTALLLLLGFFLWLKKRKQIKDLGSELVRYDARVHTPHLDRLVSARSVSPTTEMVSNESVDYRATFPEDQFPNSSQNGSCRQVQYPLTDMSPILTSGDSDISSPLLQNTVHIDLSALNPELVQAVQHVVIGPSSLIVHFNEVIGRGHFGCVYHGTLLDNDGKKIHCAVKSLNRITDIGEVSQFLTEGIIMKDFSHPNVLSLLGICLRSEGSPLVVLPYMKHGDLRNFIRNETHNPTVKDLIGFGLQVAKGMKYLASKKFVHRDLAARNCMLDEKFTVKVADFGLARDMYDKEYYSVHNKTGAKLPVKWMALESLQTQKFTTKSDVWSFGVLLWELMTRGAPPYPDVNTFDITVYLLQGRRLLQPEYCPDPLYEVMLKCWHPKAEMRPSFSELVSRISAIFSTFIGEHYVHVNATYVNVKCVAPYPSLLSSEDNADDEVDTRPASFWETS

Row | Structure (SMILES) | IC50 (RON (human)) [µM] | IC50 (MET (human)) [µM]
1 | CN(C)C(=O)N1CCC(n2cc(-c3cnc(N)c(-c4cc5c(Cl)ccc(F)c5cn4)c3)cn2)CC1 [Example 67, 4-4-[6-Amino-5-(5-chloro-8-fluoroisoquinolin-3-yl)-pyridin-3-yl]-pyrazol-1-ylpiperidine-1-carboxylic acid dimethylamide bis-hydrochloride] | 0.1 to 1 | 0.1 to 1
2 | NC(=O)N1CCC(n2cc(-c3cnc(N)c(-c4cc5c(Cl)ccc(F)c5cn4)c3)cn2)CC1 [Example 68, 4-4-[6-Amino-5-(5-chloro-8-fluoroisoquinolin-3-yl)-pyridin-3-yl]-pyrazol-1-ylpiperidine-1-carboxamide bis-hydrochloride] | 0.1 to 1 | 0.1 to 1
3 | Nc1ncc(-c2cnn(C3CCN(CC(F)(F)F)CC3)c2)cc1-c1cc2c(Cl)ccc(F)c2cn1 [Example 69, 3-(5-Chloro-8-fluoroisoquinolin-3-yl)-5-1-[1-(2,2,2-trifluoroethyl)-piperidin-4-yl]-1H-pyrazol-4-yl-pyridin-2-ylamine bis-hydrochloride] | 1 to 20 | 1 to 20
4 | COCCN1CCC(n2cc(-c3cnc(N)c(-c4cc5c(Cl)ccc(F)c5cn4)c3)cn2)CC1 [Example 70, 3-(5-Chloro-8-fluoroisoquinolin-3-yl)-5-1-[1-(2-methoxyethyl)-piperidin-4-yl]-1H-pyrazol-4-yl-pyridin-2-ylamine] | 1 to 20 | 0.1 to 1
5 | CN(C)C(=O)[C@@H]1C[C@H](n2cc(-c3cnc(N)c(-c4cc5c(Cl)ccc(F)c5cn4)c3)cn2)CN1 [Example 71, (2S,4S)-4-{4-[6-Amino-5-(5-chloro-8-fluoroisoquinolin-3-yl)-pyridin-3-yl]-pyrazol-1-yl}-pyrrolidine-2-carboxylic acid dimethylamide] | 0.1 to 1 | ≤ 0.1
6 | Nc1ncc(-c2cnn([C@@H]3CN[C@H](C(=O)N4CCOCC4)C3)c2)cc1-c1cc2c(Cl)ccc(F)c2cn1 [Example 72, ((2S,4S)-4-{4-[6-Amino-5-(5-chloro-8-fluoroisoquinolin-3-yl)-pyridin-3-yl]-pyrazol-1-yl}-pyrrolidin-2-yl)-morpholin-4-ylmethanone] | 0.1 to 1 | ≤ 0.1
7 | Nc1ncc(-c2cnn([C@@H]3CN[C@H](C(=O)N4CCCC4)C3)c2)cc1-c1cc2c(Cl)ccc(F)c2cn1 [Example 73, ((2S,4S)-4-{4-[6-Amino-5-(5-chloro-8-fluoroisoquinolin-3-yl)-pyridin-3-yl]-pyrazol-1-yl}-pyrrolidin-2-yl)-pyrrolidin-1-ylmethanone] | 0.1 to 1 | 0.1 to 1
8 | COCCNC(=O)[C@@H]1C[C@H](n2cc(-c3cnc(N)c(-c4cc5c(Cl)ccc(F)c5cn4)c3)cn2)CN1 [Example 74, (2S,4S)-4-{4-[6-Amino-5-(5-chloro-8-fluoroisoquinolin-3-yl)-pyridin-3-yl]-pyrazol-1-yl}-pyrrolidine-2-carboxylic acid (2-methoxyethyl)-amide] | 1 to 20 | 1 to 20
9 | Nc1ncc(-c2ccsc2)cc1-c1cc2c(Cl)ccc(F)c2cn1 [Example 76, 3-(5-Chloro-8-fluoroisoquinolin-3-yl)-5-thiophen-3-ylpyridin-2-amine] | > 20 | > 20
10 | Nc1ncc(-c2ccccc2)cc1-c1cc2c(Cl)ccc(F)c2cn1 [Example 77, 3-(5-Chloro-8-fluoroisoquinolin-3-yl)-5-phenylpyridin-2-amine] | > 20 | > 20
11 | Nc1ncc(-c2cccnc2)cc1-c1cc2c(Cl)ccc(F)c2cn1 [Example 78, 5-(5-Chloro-8-fluoroisoquinolin-3-yl)-3,3′-bipyridin-6-amine] | 1 to 20 | 1 to 20
12 | Nc1ncc(-c2ccncc2)cc1-c1cc2c(Cl)ccc(F)c2cn1 [Example 79, 5-(5-Chloro-8-fluoroisoquinolin-3-yl)-3,4′-bipyridin-6-amine] | 1 to 20 | 1 to 20
13 | CC(C)(C)OC(=O)N1CC=C(c2cnc(N)c(-c3cc4c(Cl)ccc(F)c4cn3)c2)CC1 [Example 80] | 1 to 20 | 1 to 20
14 | Nc1ccc(-c2cnc(N)c(-c3cc4c(Cl)ccc(F)c4cn3)c2)cn1 [Example 81, 5-(5-Chloro-8-fluoroisoquinolin-3-yl)-3,3′-bipyridine-6,6′-diamine] | 1 to 20 | 1 to 20
15 | CC(=O)Nc1ccc(-c2cnc(N)c(-c3cc4c(Cl)ccc(F)c4cn3)c2)cc1 [Example 82, N-4-[6-Amino-5-(5-chloro-8-fluoroisoquinolin-3-yl)pyridin-3-yl]phenylacetamide] | > 20 | 1 to 20
16 | CCOC(=O)COc1ccc(-c2cnc(N)c(-c3cc4c(Cl)ccc(F)c4cn3)c2)cc1 [Example 83, Ethyl-[4-(6-amino-5-(5-chloro-8-fluoroisoquinolin-3-yl)pyridin-3-yl)phenoxy]acetate] | 1 to 20 | 1 to 20
17 | Nc1ncc(-c2ccc(O)nc2)cc1-c1cc2c(Cl)ccc(F)c2cn1 [Example 84, 6′-Amino-5′-(5-chloro-8-fluoroisoquinolin-3-yl)-3,3′-bipyridin-6-ol] | 1 to 20 | 1 to 20

Row | Structure (SMILES) | IC50 (RON (human)) [µM] | IC50 (MET (human)) [µM]
18 | Nc1ncc(-c2ccoc2)cc1-c1cc2c(Cl)ccc(F)c2cn1 [Example 85, 3-(5-Chloro-8-fluoroisoquinolin-3-yl)-5-furan-3-ylpyridin-2-amine] | > 20 | 1 to 20
19 | Nc1ncc(-c2ccco2)cc1-c1cc2c(Cl)ccc(F)c2cn1 [Example 86, 3-(5-Chloro-8-fluoroisoquinolin-3-yl)-5-furan-2-ylpyridin-2-amine] | > 20 | 1 to 20
20 | Nc1ncc(-c2cn[nH]c2)cc1-c1cc2c(Cl)ccc(F)c2cn1 [Example 87, 3-(5-Chloro-8-fluoroisoquinolin-3-yl)-5-(1H-pyrazol-4-yl)pyridin-2-amine] | 1 to 20 | 1 to 20
21 | Nc1ncc(-c2ccc(NCCN3CCOCC3)nc2)cc1-c1cc2c(Cl)ccc(F)c2cn1 [Example 88, 3-(5-Chloro-8-fluoroisoquinolin-3-yl)-5-N6′-(2-morpholin-4-ylethyl)-3,3′-bipyridine-6,6′-diamine] | 1 to 20 | 1 to 20
22 | Nc1ncc(-c2cc3ccccc3[nH]2)cc1-c1cc2c(Cl)ccc(F)c2cn1 [Example 89, 3-(5-Chloro-8-fluoroisoquinolin-3-yl)-5-(1H-indol-2-yl)pyridin-2-amine] | 1 to 20 | 1 to 20
23 | COc1ccc(Cl)c2cc(-c3cc(-c4ccc(C(=O)O)cc4)cnc3N)ncc12 [Example 90, 4-[6-Amino-5-(5-chloro-8-methoxyisoquinolin-3-yl)-pyridin-3-yl]benzoic acid] | 0.1 to 1 | 0.1 to 1
24 | COc1ccc(Cl)c2cc(-c3cc(-c4cccc(C(=O)O)c4)cnc3N)ncc12 [Example 91, 3-[6-Amino-5-(5-chloro-8-methoxyisoquinolin-3-yl)-pyridin-3-yl]benzoic acid] | > 20 | > 20
25 | Nc1ncc(-c2cnn(C3CCNCC3)c2)cc1-c1cc2ccccc2o1 [Example 92, 3-Benzofuran-2-yl-5-(1-piperidin-4-yl-1H-pyrazol-4-yl)-pyridin-2-ylamine dihydrochloride] | 1 to 20 | 0.1 to 1
26 | Nc1ncc(-c2cnn(C3CCNCC3)c2)cc1-c1oc2ccccc2c1Cl [Example 93, 3-(3-Chlorobenzofuran-2-yl)-5-(1-piperidin-4-yl-1H-pyrazol-4-yl)-pyridin-2-ylamine dihydrochloride] | 0.1 to 1 | 0.1 to 1
27 | Cc1c(-c2cc(-c3cnn(C4CCNCC4)c3)cnc2N)oc2ccccc12 [Example 94, 3-(3-Methylbenzofuran-2-yl)-5-(1-piperidin-4-yl-1H-pyrazol-4-yl)pyridin-2-ylamine bishydrochloride] | 1 to 20 | 0.1 to 1
28 | Nc1ncc(-c2cnn(C3CCNCC3)c2)cc1-c1oc2ccccc2c1Br [Example 95, 3-(3-Bromobenzofuran-2-yl)-5-(1-piperidin-4-yl-1H-pyrazol-4-yl)-pyridin-2-ylamine trifluoroacetate] | 1 to 20 | 1 to 20
29 | Nc1ncc(-c2cnn(C3CCNCC3)c2)cc1-c1oc2ccccc2c1-c1ccccc1 [Example 96, 3-(3-Phenylbenzofuran-2-yl)-5-(1-piperidin-4-yl-1H-pyrazol-4-yl)pyridine-2-ylamine] | 1 to 20 | 1 to 20
30 | Nc1ncc(-c2cnn(C3CCNCC3)c2)cc1-c1oc2ccccc2c1-c1cccc(Cl)c1F [Example 97, 3-[3-(3-Chloro-2-fluorophenyl)benzofuran-2-yl]-5-(1-piperidin-4-yl-1H-pyrazol-4-yl)pyridine-2-ylamine] | 1 to 20 | 0.1 to 1
31 | Nc1ncc(-c2cnn(C3CCNCC3)c2)cc1-c1oc2ccccc2c1-c1cccc(F)c1F [Example 98, 3-[3-(2,3-Difluorophenyl)benzofuran-2-yl]-5-(1-piperidin-4-yl-1H-pyrazol-4-yl)pyridine-2-ylamine] | 1 to 20 | 0.1 to 1
32 | Nc1ncc(-c2cnn([C@@H]3CCNC3)c2)cc1-c1cc2ccccc2o1 [Example 99, 3-Benzofuran-2-yl-5-((R)-1-pyrrolidin-3-yl-1H-pyrazol-4-yl)-pyridin-2-ylamine dihydrochloride] | 0.1 to 1 | 0.1 to 1
33 | Nc1ncc(-c2cnn([C@H]3CCNC3)c2)cc1-c1cc2ccccc2o1 [Example 100, 3-Benzofuran-2-yl-5-((S)-1-pyrrolidin-3-yl-1H-pyrazol-4-yl)-pyridin-2-ylamine dihydrochloride] | 0.1 to 1 | 0.1 to 1
34 | Cn1cc(-c2cnc(N)c(-c3cc4ccccc4o3)c2)cn1 [Example 101, 3-Benzofuran-2-yl-5-(1-methyl-1H-pyrazol-4-yl)-pyridin-2-ylamine bis-hydrochloride] | 1 to 20 | 1 to 20
